Experimental findings from patent US8394848B2, “Compounds that modulate intracellular calcium” (Calcimedica, Inc., priority 2008, dated 2013) are described below.

Some results are limits rather than exact numbers.

This experiment deals with JR251 or RBL cells. Nature of the experiment: Store-operated calcium entry, either JR251 or RBL cells, or both. It is filed as cell-based. The method, boiled down: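 FLIPR calcium-entry readout in fluo-4-loaded cells held in Ca2+-free HBSS before calcium add-back. For RBL-2H3, store depletion used thapsigargin for 25 min after a 5 min compound pre-incubation, and IC50 was based on the 7 s Upslope. For Orai1/STIM1 stable cells, compound was pre-incubated 30 min and IC50 was based on Peak-Basal.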
Broadly, the IC50 is the concentration that gives 50% inhibition. As to `O=C(O)c1c(-c2ccc(Br)cc2)csc1NC(=O)C(F)Cc1cc(F)c(F)cc1Cl` (stereo not drawn) [4-(4-bromophenyl)-2-(3-(2-chloro-4,5-difluorophenyl)-2-fluoropropanamido)thiophene-3-carboxylic acid], the IC50 is less than 10 µM. The figure for `O=C(O)c1c(-c2ccc(Br)cc2)csc1NC(=O)C(F)Cc1ccc(F)cc1Cl` (stereo not drawn) [4-(4-bromophenyl)-2-(3-(2-chloro-4-fluorophenyl)-2-fluoropropanamido)thiophene-3-carboxylic acid] is less than 10 µM; for `O=C(O)c1c(-c2ccc(Br)cc2)csc1NC(=O)C(F)Cc1cc(F)ccc1Cl` (stereo not drawn) [4-(4-bromophenyl)-2-(3-(2-chloro-5-fluorophenyl)-2-fluoropropanamido)thiophene-3-carboxylic acid] it is less than 10 µM; for `O=C(O)c1c(-c2ccc(Br)cc2)csc1NC(=O)C(F)Cc1c(F)cccc1Cl` (stereo not drawn) [4-(4-bromophenyl)-2-(3-(2-chloro-6-fluorophenyl)-2-fluoropropanamido)thiophene-3-carboxylic acid] it is less than 10 µM. As for `O=C(O)c1c(-c2ccc(Br)cc2)csc1NC(=O)C(F)Cc1ccccc1Cl` (stereo not drawn) [4-(4-bromophenyl)-2-(3-(2-chlorophenyl)-2-fluoropropanamido)thiophene-3-carboxylic acid], the IC50 is less than 10 µM.

As to `O=C(CCc1ccccc1Cl)Nc1scc(-c2ccc(Br)cc2)c1C(=O)O` [4-(4-bromophenyl)-2-(3-(2-chlorophenyl)propanamido)thiophene-3-carboxylic acid], the IC50 was less than 10 µM.

Take `O=C(CCc1ccccc1F)Nc1scc(-c2ccc(Br)cc2)c1C(=O)O` [4-(4-bromophenyl)-2-(3-(2-fluorophenyl)propanamido)thiophene-3-carboxylic acid]: the half-inhibitory concentration (IC50) was less than 10 µM.

On to `O=C(CCc1ccc(F)c(F)c1)Nc1scc(-c2ccc(Br)cc2)c1C(=O)O` [4-(4-bromophenyl)-2-(3-(3,4-difluorophenyl)propanamido)thiophene-3-carboxylic acid], for which the IC50 is less than 10 µM.

As for `CCc1cccc(NC(=O)Nc2scc(-c3ccc(Br)cc3)c2C(=O)O)c1` [4-(4-bromophenyl)-2-(3-(3-ethylphenyl)ureido)thiophene-3-carboxylic acid], the half-maximal inhibitory concentration (IC50) was less than 10 µM. With `O=C(CCc1cccc(F)c1)Nc1scc(-c2ccc(Br)cc2)c1C(=O)O` [4-(4-bromophenyl)-2-(3-(3-fluorophenyl)propanamido)thiophene-3-carboxylic acid], the IC50 is less than 10 µM. Take `O=C(Nc1cccc(F)c1)Nc1scc(-c2ccc(Br)cc2)c1C(=O)O` [4-(4-bromophenyl)-2-(3-(3-fluorophenyl)ureido)thiophene-3-carboxylic acid]: the IC50 was less than 10 µM. The figure for `COc1cccc(CCC(=O)Nc2scc(-c3ccc(Br)cc3)c2C(=O)O)c1` [4-(4-bromophenyl)-2-(3-(3-methoxyphenyl)propanamido)thiophene-3-carboxylic acid] is less than 10 µM. The figure for `O=C(CCc1ccc(F)cc1)Nc1scc(-c2ccc(Br)cc2)c1C(=O)O` [4-(4-bromophenyl)-2-(3-(4-fluorophenyl)propanamido)thiophene-3-carboxylic acid] is less than 10 µM. On to `COc1ccc(CCC(=O)Nc2scc(-c3ccc(Br)cc3)c2C(=O)O)cc1` [4-(4-bromophenyl)-2-(3-(4-methoxyphenyl)propanamido)thiophene-3-carboxylic acid], for which the half-maximal inhibitory concentration (IC50) was less than 10 µM. For the compound `O=C(CCc1ccco1)Nc1scc(-c2ccc(Br)cc2)c1C(=O)O` [4-(4-bromophenyl)-2-(3-(furan-2-yl)propanamido)thiophene-3-carboxylic acid], the IC50 is less than 10 µM. The figure for `O=C(CCc1cccs1)Nc1scc(-c2ccc(Br)cc2)c1C(=O)O` [4-(4-bromophenyl)-2-(3-(thiophen-2-yl)propanamido)thiophene-3-carboxylic acid] is less than 10 µM.

Turning to `COC1CCCC(C(=O)Nc2scc(-c3ccc(Br)cc3)c2C(=O)O)C1` (stereo not drawn) [4-(4-bromophenyl)-2-(3-methoxycyclohexanecarboxamido)thiophene-3-carboxylic acid], the IC50 was less than 10 µM. The figure for `Cc1ccsc1C(=O)Nc1scc(-c2ccc(Br)cc2)c1C(=O)O` [4-(4-bromophenyl)-2-(3-methylthiophene-2-carboxamido)thiophene-3-carboxylic acid] is less than 10 µM; for `O=C(O)c1c(-c2ccc(Br)cc2)csc1Nc1nc(-c2ccccc2)no1` [4-(4-bromophenyl)-2-(3-phenyl-1,2,4-oxadiazol-5-ylamino)thiophene-3-carboxylic acid] it is less than 10 µM; for `O=C(CCc1ccccc1)Nc1scc(-c2ccc(Br)cc2)c1C(=O)O` [4-(4-bromophenyl)-2-(3-phenylpropanamido)thiophene-3-carboxylic acid] it is less than 10 µM.

On to `Cc1c(S(=O)(=O)c2ccc(Cl)cc2)csc1C(=O)Nc1scc(-c2ccc(Br)cc2)c1C(=O)O` [4-(4-bromophenyl)-2-(4-(4-chlorophenylsulfonyl)-3-methylthiophene-2-carboxamido)thiophene-3-carboxylic acid], for which the IC50 is less than 10 µM. The figure for `O=C(Nc1scc(-c2ccc(Br)cc2)c1C(=O)O)c1nc2c(F)cccc2o1` [4-(4-bromophenyl)-2-(4-fluorobenzo[d]oxazole-2-carboxamido)thiophene-3-carboxylic acid] is less than 10 µM; for `O=C(Nc1scc(-c2ccc(Br)cc2)c1C(=O)O)c1cc2c(F)cccn2n1` [4-(4-bromophenyl)-2-(4-fluoropyrazolo[1,5-a]pyridine-2-carboxamido)thiophene-3-carboxylic acid] it is less than 10 µM; for `Cc1nnsc1C(=O)Nc1scc(-c2ccc(Br)cc2)c1C(=O)O` [4-(4-bromophenyl)-2-(4-methyl-1,2,3-thiadiazole-5-carboxamido)thiophene-3-carboxylic acid] it is less than 10 µM. Turning to `O=C(Nc1scc(-c2ccc(Br)cc2)c1C(=O)O)c1cc2occc2[nH]1` [4-(4-bromophenyl)-2-(4H-furo[3,2-b]pyrrole-5-carboxamido)thiophene-3-carboxylic acid], the 50% inhibitory concentration (IC50) is less than 10 µM. The figure for `O=C(Nc1scc(-c2ccc(Br)cc2)c1C(=O)O)c1cc2sccc2[nH]1` [4-(4-bromophenyl)-2-(4H-thieno[3,2-b]pyrrole-5-carboxamido)thiophene-3-carboxylic acid] is less than 10 µM; for `Cn1ncc(C(=O)Nc2scc(-c3ccc(Br)cc3)c2C(=O)O)c1Cl` [4-(4-bromophenyl)-2-(5-chloro-1-methyl-1H-pyrazole-4-carboxamido)thiophene-3-carboxylic acid] it is less than 10 µM; for `O=C(O)c1c(-c2ccc(Br)cc2)csc1NC(=O)C1Cc2cc(Cl)ccc2O1` (stereo not drawn) [4-(4-bromophenyl)-2-(5-chloro-2,3-dihydrobenzofuran-2-carboxamido)thiophene-3-carboxylic acid] it is less than 10 µM. The figure for `O=C(Nc1scc(-c2ccc(Br)cc2)c1C(=O)O)c1nc2cc(Cl)ccc2o1` [4-(4-bromophenyl)-2-(5-chlorobenzo[d]oxazole-2-carboxamido)thiophene-3-carboxylic acid] is less than 10 µM; for `O=C(Nc1scc(-c2ccc(Br)cc2)c1C(=O)O)c1ccc(-c2ccccc2)s1` [4-(4-bromophenyl)-2-(5-phenylthiophene-2-carboxamido)thiophene-3-carboxylic acid] it is less than 10 µM. The figure for `O=C(Nc1scc(-c2ccc(Br)cc2)c1C(=O)O)c1ccc(C(F)(F)F)nc1` [4-(4-bromophenyl)-2-(6-(trifluoromethyl)nicotinamido)thiophene-3-carboxylic acid] is less than 10 µM; for `O=C(Nc1scc(-c2ccc(Br)cc2)c1C(=O)O)c1cccc(F)n1` [4-(4-bromophenyl)-2-(6-fluoropicolinamido)thiophene-3-carboxylic acid] it is less than 10 µM. For the compound `COc1cccc(C(=O)Nc2scc(-c3ccc(Br)cc3)c2C(=O)O)n1` [4-(4-bromophenyl)-2-(6-methoxypicolinamido)thiophene-3-carboxylic acid], the IC50 was less than 10 µM. The figure for `Cc1ccc(C(=O)Nc2scc(-c3ccc(Br)cc3)c2C(=O)O)cn1` [4-(4-bromophenyl)-2-(6-methylnicotinamido)thiophene-3-carboxylic acid] is less than 10 µM. On to `N#Cc1cccc2nc(C(=O)Nc3scc(-c4ccc(Br)cc4)c3C(=O)O)oc12` [4-(4-bromophenyl)-2-(7-cyanobenzo[d]oxazole-2-carboxamido)thiophene-3-carboxylic acid], for which the half-maximal inhibitory concentration (IC50) was less than 10 µM. As for `O=C(Nc1scc(-c2ccc(Br)cc2)c1C(=O)O)c1nc2cccc(F)c2o1` [4-(4-bromophenyl)-2-(7-fluorobenzo[d]oxazole-2-carboxamido)thiophene-3-carboxylic acid], the IC50 is less than 10 µM.

In the case of `COc1cccc2c1CC(C(=O)Nc1scc(-c3ccc(Br)cc3)c1C(=O)O)CC2` (stereo not drawn) [4-(4-bromophenyl)-2-(8-methoxy-1,2,3,4-tetrahydronaphthalene-2-carboxamido)thiophene-3-carboxylic acid], the IC50 is less than 10 µM. The figure for `O=C(Nc1scc(-c2ccc(Br)cc2)c1C(=O)O)OCc1ccccc1Cl` [4-(4-bromophenyl)-2-((2-chlorobenzyloxy)carbonylamino)thiophene-3-carboxylic acid] is less than 10 µM; for `O=C(O)c1c(-c2ccc(Br)cc2)csc1NC(=O)C1COc2ccccc2C1` (stereo not drawn) [4-(4-bromophenyl)-2-(chroman-3-carboxamido)thiophene-3-carboxylic acid] it is less than 10 µM; for `O=C(Nc1scc(-c2ccc(Br)cc2)c1C(=O)O)c1ccco1` [4-(4-bromophenyl)-2-(furan-2-carboxamido)thiophene-3-carboxylic acid] it is less than 10 µM.

As for `O=C(Nc1scc(-c2ccc(Br)cc2)c1C(=O)O)c1cn2ccccc2n1` [4-(4-bromophenyl)-2-(imidazo[1,2-a]pyridine-2-carboxamido)thiophene-3-carboxylic acid], the IC50 is less than 10 µM. Take `O=C(O)c1c(-c2ccc(Br)cc2)csc1NC(=O)N1Cc2ccccc2C1` [4-(4-bromophenyl)-2-(isoindoline-2-carboxamido)thiophene-3-carboxylic acid]: the IC50 is less than 10 µM.
